Measurements: the CheMixHub viscosity set
± gives the uncertainty stated by the source.

Assay: xn = mol fraction of the nth substance listed

CN(C)c1ccccc1 + CCC(C)O
303.15 K, 101 kPa
Settings	viscosity [mPa·s]
x1 = 0.0452	2.686 ± 0.022
x1 = 0.0845	2.638 ± 0.021
x1 = 0.1321	2.582 ± 0.02
x1 = 0.1893	2.512 ± 0.02
x1 = 0.2452	2.442 ± 0.019
x1 = 0.2756	2.402 ± 0.018
x1 = 0.3065	2.362 ± 0.018
x1 = 0.3655	2.279 ± 0.017
x1 = 0.4292	2.183 ± 0.017
x1 = 0.4906	2.086 ± 0.016
x1 = 0.6021	1.893 ± 0.015
x1 = 0.7323	1.65 ± 0.014
x1 = 0.8911	1.353 ± 0.013

CCCCN(CCCC)CCCC + CCCCCCCCO
viscosity [mPa·s], 101.3 kPa
Settings	x1 = 0.0904	x1 = 0.1906	x1 = 0.2864	x1 = 0.4192	x1 = 0.5184	x1 = 0.6196	x1 = 0.7144	x1 = 0.8124	x1 = 0.8987
303.15 K	5.287 ± 0.058	4.464 ± 0.05	3.765 ± 0.042	2.935 ± 0.033	2.43 ± 0.028	2.025 ± 0.023	1.723 ± 0.02	1.487 ± 0.018	1.33 ± 0.016
313.15 K	3.767 ± 0.043	3.171 ± 0.036	2.698 ± 0.031	2.185 ± 0.025	1.872 ± 0.022	1.619 ± 0.019	1.424 ± 0.017	1.25 ± 0.015	1.128 ± 0.014

CCCCC(C)O (stereo not drawn) + CCCCCCCCCCCC
298.15 K, 101 kPa
Settings	viscosity [mPa·s]
x2 = 0.0555	3.6 ± 0.06
x2 = 0.0999	3.24 ± 0.06
x2 = 0.1555	2.84 ± 0.06
x2 = 0.1999	2.55 ± 0.06
x2 = 0.2554	2.24 ± 0.06
x2 = 0.2999	2.01 ± 0.06
x2 = 0.3555	1.77 ± 0.06
x2 = 0.3998	1.6 ± 0.06
x2 = 0.4555	1.42 ± 0.06
x2 = 0.4999	1.31 ± 0.06
x2 = 0.5554	1.19 ± 0.06
x2 = 0.5998	1.12 ± 0.06
x2 = 0.6554	1.05 ± 0.06
x2 = 0.6999	1.02 ± 0.06
x2 = 0.7555	1 ± 0.06
x2 = 0.7997	1 ± 0.06
x2 = 0.8555	1.02 ± 0.06
x2 = 0.8998	1.04 ± 0.06
x2 = 0.9555	1.09 ± 0.06

CCCCCCCCCCCCCCCCCC[P+](CCCC)(CCCC)CCCC.N#Cc1ccc[n-]1 + OCCN(CCO)CCO
viscosity [mPa·s], 100 kPa
Settings	293.15 K	298.15 K	303.15 K	313.15 K
x1 = 0.014	971 ± 150	643 ± 96	420 ± 61	192 ± 28
x1 = 0.029	1032 ± 160	613 ± 91	390 ± 57	189 ± 27
x1 = 0.046	1123 ± 170	683 ± 100	439 ± 64	217 ± 31
x1 = 0.085	1228 ± 190	775 ± 120	506 ± 75	248 ± 36
x1 = 0.104	1251 ± 190	794 ± 120	526 ± 78	258 ± 37
x1 = 0.214	1185 ± 180	795 ± 120	538 ± 79	267 ± 39
x1 = 0.286	1096 ± 170	746 ± 110	509 ± 75	257 ± 37
x1 = 0.387	1019 ± 150	704 ± 100	483 ± 71	248 ± 36
x1 = 0.475	928 ± 140	646 ± 96	448 ± 66	233 ± 34
x1 = 0.548	856 ± 130	600 ± 89	422 ± 62	225 ± 32
x1 = 0.73	847 ± 130	614 ± 91	459 ± 67	242 ± 35
x1 = 0.834	925 ± 140	653 ± 97	459 ± 67	244 ± 35

CN(C)c1ccccc1 + CCCCCO
303.15 K, 101 kPa
Settings	viscosity [mPa·s]
x1 = 0.0799	2.75 ± 0.022
x1 = 0.121	2.704 ± 0.021
x1 = 0.2034	2.605 ± 0.02
x1 = 0.2784	2.506 ± 0.019
x1 = 0.3584	2.392 ± 0.018
x1 = 0.4284	2.284 ± 0.017
x1 = 0.5047	2.158 ± 0.016
x1 = 0.5722	2.039 ± 0.016
x1 = 0.6406	1.913 ± 0.015
x1 = 0.7103	1.777 ± 0.014
x1 = 0.781	1.635 ± 0.014
x1 = 0.8168	1.562 ± 0.013
x1 = 0.9058	1.374 ± 0.013

C=CC#N + CCOC(C)=O
viscosity [mPa·s]
Settings	298.15 K	303.15 K	308.15 K
101.3 kPa, x1 = 0.0974	–	0.3987 ± 0.0034	–
101.3 kPa, x1 = 0.201	–	0.394 ± 0.0034	–
101.3 kPa, x1 = 0.302	–	0.3883 ± 0.0033	–
101.3 kPa, x1 = 0.3997	–	0.3824 ± 0.0033	–
101.3 kPa, x1 = 0.4964	–	0.3739 ± 0.0033	–
101.3 kPa, x1 = 0.5946	–	0.3654 ± 0.0032	–
101.3 kPa, x1 = 0.6974	–	0.3546 ± 0.0032	–
101.3 kPa, x1 = 0.7978	–	0.3413 ± 0.0031	–
101.3 kPa, x1 = 0.9018	–	0.3263 ± 0.0031	–
101.33 kPa, x1 = 0.1002	0.442 ± 0.013	0.419 ± 0.012	0.398 ± 0.012
101.33 kPa, x1 = 0.2025	0.429 ± 0.013	0.403 ± 0.012	0.383 ± 0.012
101.33 kPa, x1 = 0.3034	0.42 ± 0.012	0.397 ± 0.012	0.377 ± 0.011
101.33 kPa, x1 = 0.4047	0.408 ± 0.012	0.387 ± 0.012	0.369 ± 0.011
101.33 kPa, x1 = 0.5034	0.4 ± 0.012	0.379 ± 0.011	0.361 ± 0.011
101.33 kPa, x1 = 0.5994	0.39 ± 0.012	0.368 ± 0.011	0.352 ± 0.011
101.33 kPa, x1 = 0.7007	0.381 ± 0.011	0.364 ± 0.011	0.351 ± 0.011
101.33 kPa, x1 = 0.8021	0.369 ± 0.011	0.358 ± 0.011	0.344 ± 0.011
101.33 kPa, x1 = 0.9003	0.358 ± 0.011	0.349 ± 0.011	0.328 ± 0.01

[2H]O[2H] + [Cl-].[Li+]
viscosity [mPa·s], 101 kPa
Settings	x2 = 0.024	x2 = 0.076	x2 = 0.141	x2 = 0.197	x2 = 0.215
298.15 K	–	1.712 ± 0.016	3.692 ± 0.031	–	8.914 ± 0.069
308.15 K	1.039 ± 0.009	1.351 ± 0.011	3.018 ± 0.024	–	6.744 ± 0.055
318.15 K	0.854 ± 0.007	1.112 ± 0.009	2.397 ± 0.019	4.216 ± 0.034	5.422 ± 0.045

CCCCOC(=O)c1ccccc1C(=O)OCCCC + CCCCCCCCO
303.15 K, 101.33 kPa
Settings	viscosity [mPa·s]
x1 = 0.1003	5.9 ± 0.033
x1 = 0.2011	5.876 ± 0.033
x1 = 0.3001	6.078 ± 0.033
x1 = 0.3996	6.444 ± 0.035
x1 = 0.5	6.901 ± 0.037
x1 = 0.5999	7.6 ± 0.04
x1 = 0.6958	8.396 ± 0.044
x1 = 0.7975	9.53 ± 0.048
x1 = 0.898	11.05 ± 0.055
